Assay results reported in article PMC11093748, “De novo identification of CD4^+ T cell epitopes” (Nature Methods, 2024).

Key:
TCR3 = test: Single SABR-II co-incubation, NFAT-GFP Jurkat; type: cell-based, mouse; details: TCR 3, Fig 5C
From the text: Given the predominance of HIP-reactive TCRs, we hypothesized that there may be other TCRs that respond to HIPs that were not encoded in our initial library configuration. While the initial I-Ag7 SABR-II library consisted of a number of HIPs, HIP formation is thought to be more widespread in pancreatic β-cells[52],[70]. Therefore, we sought to construct a defined, HIP-focused library to probe whether there were any undiscovered HIP-reactive TCRs that could be recognized by the clonally expanded TCR in our dataset. To test this, we utilized a published proteomic dataset, which predicted that several proteins that were highly expressed in secretory granules of β-cells may contribute to HIP formation. Using their predictions, we built a theoretical HIP library, in which all possible ‘left’ halves of the insulin C chain derived from natural cleavage products were fused to ‘right’ halves derived from secretory granule proteins (Fig. 5a). This 2,561-epitope library (12–25 amino acids per epitope) consisted of only HIPs and a small number of positive control epitopes (Supplementary Table 5). We screened the top three clonally expanded TCRs (TCR1, TCR2 and TCR3) against this library, as these TCRs had not been de-convoluted using the original library. […] To confirm that the HIP itself was important for the cognate interaction, we cloned single 14-mer epitopes into SABR-IIs consisting of seven amino acids of the left portion of the HIP and seven amino acids of the right portion of the HIP. In this way, no nine amino acids from either peptide sequence alone could occupy the binding pocket of I-Ag7, ensuring that TCR reactivity spanned the HIP junction. […] Of note, in all the epitopes that were tested, the ‘left’ half derived from insulin C was conserved, whereas the ‘right’ halves were derived from several other proteins (Fig. 5d). […] Moreover, the promiscuous binding of TCR3 to HIPs corroborates evidence from other NOD mouse-derived TCRs reacting to multiple HIPs[72].
(§1) For SABR library screens, 3 × 10^6 NFAT–GFP Jurkat cells expressing the SABR library were labeled with CellTrace Violet (BioLegend) according to the manufacturer’s protocol before incubation with 3 × 10^6 Jurkat cells expressing the TCR of interest. These mixtures were incubated in a six-well plate for 16–20 h. Cells were stained with anti-CD69-APC-Cy7 where indicated (BioLegend) and the top 1–2% of GFP^+CD69^+ cells were sorted for genomic DNA extraction, indexing and sequencing (see below). Multiplexed assays were scaled on a per-TCR basis (for example 3 × 10^6 for each of three TCRs against 9 × 10^6 library cells). For single SABR assays, unless otherwise defined, 5 × 10^5 SABR expressing NFAT–GFP Jurkat cells (or 5KC cells) were labeled with CellTrace Violet (BioLegend) according to the manufacturer’s protocol before incubation with 5 × 10^5 TCR-expressing Jurkat cells (or 5KC cells) in a round-bottom 96-well plate for 16–20 h. Cells were stained with anti-CD69-APC-Cy7 when indicated and acquired on the Attune NxT flow cytometer (Thermo Fisher Scientific). All flow analysis was performed using FlowJo (BD). For Daudi cell co-culture, 1 × 10^6 Jurkat cells expressing the TCR of interest were incubated with 1 × 10^6 Daudi cells expressing a SABR of interest for 3 days. On day 3, cells were labeled with anti-RT1B-PE and anti-Fas-APC-Cy7 before being acquired on the Attune NxT flow cytometer.

GSE.20D11 TCR = test: Single SABR-II co-incubation, NFAT-GFP Jurkat (HLA-DQ8); type: cell-based, human; details: HLA-DQ8 SABR-II
From the text: (§2) We have previously described SABRs, which are chimeric receptors containing an extracellular pMHC complex attached to an intracellular CD28-CD3ζ signaling domain. […] We sought to expand this platform to allow antigen discovery for MHC/HLA-II with seamless integration with class I alleles. Here, we created SABRs to present epitopes in MHC-II alleles, by covalently linking the epitope to the β-chain of MHC-II that is attached to the CD28-CD3ζ signaling domains downstream, along with a 2A peptide-linked MHC-II α-chain (Fig. 1a,b). To test whether SABR-IIs could present epitopes to TCRs and induce a signal, we expressed them using lentiviral vectors in NFAT–GFP Jurkat cells, which express green fluorescent protein (GFP) upon NFAT activation and translocation downstream of CD3ζ activation (a kind gift from Y. Chen and A. Weiss). We constructed murine SABR-IIs presenting epitopes in I-Ab, I-Ad and I-Ag7 (Ova, […][41]; ATEG, […][42]; and 2.5mimo, […][43], respectively). We co-incubated the SABR-II-expressing NFAT–GFP Jurkat cells with a separate population of Jurkat cells expressing either the BDC2.5 TCR (recognizes I-Ag7-2.5mimo), OT-II TCR (recognizes I-Ab-Ova), 5-4-E8 TCR (recognizes I-Ad-ATEG) or no TCR. […] The signal from the NFAT–GFP reporter offered minimal background in absence of a cognate TCR and correlated with surface SABR expression in the presence of a cognate TCR (Extended Data Fig. 1c–e). […] We confirmed the ability of the DQ8-InsB9:23 SABR-II to present the epitope to two previously described, T1D patient-derived TCRs GSE.6H9 and GSE.20D11 (ref. [46]).
as §1

GSE.6H9 TCR = test: as above; type: cell-based, human; details: HLA-DQ8 SABR-II
From the text: as §2, §1

5KC cells, No TCR = test: mIL-2 ELISA, 5KC cells without TCR with SABR NFAT-GFP Jurkat cells; type: cell-based, mouse; details: murine IL-2 ELISA, 24 hr co-incubation

Row | Sequence | %GFP+CD69+ cells of SABR-NFAT-GFP-Jurkat cells (TCR3; technical replicate 1) | %GFP+CD69+ cells of SABR-NFAT-GFP-Jurkat cells (TCR3; technical replicate 2) | frequency of GFP+CD69+ cells (in words) (GSE.20D11 TCR) | frequency of GFP+CD69+ cells (in words) (GSE.6H9 TCR) | IL-2 secretion (5KC cells, No TCR; technical replicate 1) | IL-2 secretion (5KC cells, No TCR; technical replicate 2)
1 | LQTLALNAARDP | 0.94% | 0.89% |  |  |  | 
2 | SHLVEALYLVCGERG |  |  | high frequency of GFP^+CD69^+ cells | high frequency of GFP^+CD69^+ cells | 2.192 | 4.996
